Data published in patent US12662707B2, “MYC amplification drives resistance to pan-RAS inhibitors in pancreatic cancer” (The Trustees of Columbia University in the City of New York, priority 2024, dated 2026).

Tests used:
[1] = tested on: Myc protein levels; test: Western blot of Myc in resistant and naive KPC cell lines; type: cell-based, murine; details: 100 nM, 24 hours
Protocol: (§1) Cells were seeded at 7.5×10^5-4×10^6 cells per well in 6-well plates or 100 mm dishes in growth medium. After overnight incubation, indicated compound (RMC-7977, IAG933 or DMSO (0.1% v/v)) were added and incubated for the indicated time points. Cells were washed twice with ice-cold PBS and lysed with NP-40 lysis buffer (Thermo Fisher Scientific, J60766), MSD Tris Lysis Buffer (MSD, R60TX-2), RIPA buffer (50 mM TRIS-HCl, pH 7.5, 150 mM NaCl, 1% NP-40, 0.5% sodium deoxycholate, 0.1% SDS) or a lysis buffer containing 1% Triton X-100, 20 mM Tris-HCl, 150 mM NaCl, and 1 mM EDTA. All lysis buffers were supplemented with protease and phosphatase inhibitors. Lysates were scraped and collected before centrifugation at 21,000×g for 10 minutes at 4° C. The protein-containing supernatants were quantified by BCA assay (Pierce, 23225) and equal quantities of protein were denatured with LDS and reducing agent at 95° C. Samples were resolved on 12% or 4-12% Bis-Tris polyacrylamide gels, then transferred to a nitrocellulose or PVDF membrane using the iBlot 2.0 system or wet transfer. Membranes were blocked in Intercept TBS buffer (LiCor, 927-60001) or 3-5% milk before probing with primary antibodies overnight at 4° C. Secondary antibodies were added as appropriate, and the membranes were imaged on a LiCor Odyssey imager. […]

[2] = tested on: autochthonous KPC pancreatic tumors; details: 50 mg/kg q.o.d.
Protocol: For survival study, KPC mice with 4-7 mm diameter tumors (as measured by ultrasound) were enrolled and treated every other day with Vehicle (n=9) or RMC-7977 (50 mg/kg; n=13). Animal health status and weight were checked daily and ultrasounds were performed every third day to monitor tumor growth. The survival end point was determined by overall health criteria scoring, where end point is determined by a score of 5 or greater based on the following criteria: • Moribund—immediate euthanasia • Abdominal distention due to hemorrhagic ascites—5 pts • Mild difficulty beathing—5 pts • Hypothermia—5 pts • Abdominal distention due to chylous ascites—3 pts • Loss of over 20% enrollment body weight—3 pts • Failure of grasp test—3 pts Jaundice or pallor—3 pts • Weak grasp test—2 pts • Failure to interact with other mice—1 pt • Hunched—1 pt • Pilorection/failure to groom—1 pt
Additional notes were made to better characterize the cause of death upon necropsy, including the presence of macro liver and/or lung metastases, jaundice, and tumor-mediated GI obstructions. Survival is denoted as Kaplan-Meier survival curves compared with a log-rank, Mantel-Cox test. Mice that reached endpoint criteria were sacrificed either at 4 or 24 hours after last dose in a manner consistent with IACUC standards and our own criteria scoring. Tissue was collected at time of necropsy for further analysis.

[3] = tested on: pERK, pS6, CC3, Cyclin A2 in KPC tumors; test: Pharmacodynamic IHC of KPC tumors (SD, 1 wk, EP); type: in vivo, mouse
Protocol: Tumor formation in KPC mice was monitored by bi-weekly palpation. […] Treatments were performed every other day via oral gavage for 1 week. […] Following two consecutive ultrasounds, RMC-7977-treated animals were sacrificed either 4 (n=7) or 24 hours (n=4) after last dose and Vehicle-treated animals were sacrificed between 4-24 hours post last dose. Tissue was harvested and preserved as previously described (See Xenograft studies section). Additional group of KPC mice was also treated with a single dose of RMC-7977 (n=10) or Vehicle (n=3) and tissues were harvested at 4 or 24 hours post dose as previously described. […] RNA was extracted from at least 20 mg of indicated OCT or LN2 frozen tissue using an RNeasy Mini Kit (Qiagen, 74104) and a High Throughput Tissue grinder following the manufacturer's protocol. Reverse transcription was carried out using High-Capacity cDNA Reverse Transcription Kit (ABI, 4368814) according to the manufacturer's protocol. The cDNA product was used for qPCR analysis using TaqMan Gene Expression Master Mix (ABI, 4369016) or iTaq Universal SYBR Green Supermix (BioRad, 172-5125) depending on the primer. […] For qPCR, Ct value of MAPK signature genes and 18S were obtained for analysis. Generated Ct value were normalized to 18S, and then the mean relative mRNA expression levels of each sample were normalized to the average of the vehicle control group. Values were plotted as relative change in mRNA expression compared to Vehicle. Means±s.d. were shown. For primer sequences and more information. All tissues were fixed for up to 24 hours using 10% neutral buffered formalin and then moved to 70% ethanol for long term storage. All stainings were performed on 4-μm tissue sections. Sections were deparaffinized using a Leica XL ST5010 autostainer, after which slides were subjected to heat-activated epitope retrieval. […] Slides were further blocked in serum for 1 hour, and primary antibodies were added for overnight incubation at 4° C. […] Following incubation, ImmPACT DAB peroxidase (Vector Laboratories, SK-4100) was used to develop the stain and hematoxylin was used as nuclear counterstain. Stained slides were imaged at 40× magnification. Quantitative analyses of IHC images were performed using ImageJ.

[4] = tested on: RAS/MAPK pathway (pERK) in murine PDAC cell lines; test: Western blot of pERK, murine PDAC cell lines; type: cell-based; details: 1-100 nM, 2 hours
Protocol: as §1

[5] = tested on: autochthonous KPC pancreatic tumors; test: One-week study in KPC mice; type: in vivo, mouse; details: 50 mg/kg q.o.d.
Protocol: Tumor formation in KPC mice was monitored by bi-weekly palpation. […] Treatments were performed every other day via oral gavage for 1 week. […] Following two consecutive ultrasounds, RMC-7977-treated animals were sacrificed either 4 (n=7) or 24 hours (n=4) after last dose and Vehicle-treated animals were sacrificed between 4-24 hours post last dose. Tissue was harvested and preserved as previously described (See Xenograft studies section). Additional group of KPC mice was also treated with a single dose of RMC-7977 (n=10) or Vehicle (n=3) and tissues were harvested at 4 or 24 hours post dose as previously described.

## CCn1c(-c2cc(N3CCN(C4CC4)CC3)cnc2[C@H](C)OC)c2c3cc(ccc31)-c1csc(n1)C[C@H](NC(=O)[C@H]1[C@@H]3COC[C@@H]31)C(=O)N1CCC[C@H](N1)C(=O)OCC(C)(C)C2 [RMC-7977]
[1]; two RMC-7977 Naive lines
  Myc protein levels: fully inhibited
[1]; two Resistant lines
  Myc protein levels: incompletely reduced
[2]
  body weights compared with control KPC mice: similar
  tumor response by 3D-ultrasound: tumor stabilizations or regressions
[2]; KPC mice
  increase in median survival compared to controls: 3.5 fold
[3]; 6 of 7 tumors, 4 hours post final dose
  evaluable EP KPC tumors with full inhibition of pERK expression: 86%
[3]; EP tumors, 24 hours post-dosing
  proliferation (Cyclin A2) in EP tumors: no longer deeply suppressed
[3]; SD, 1 Wk and EP samples, 4 hours after treatment
  apoptosis in KPC tumors: wave of apoptosis
[3]; after a week of treatment
  reduced proliferation (Cyclin A2) in KPC tumors: pronounced and significant
[3]; single dose
  proliferation (Cyclin A2) in KPC tumors: trend towards reduced proliferation
  time to restoration of Ras/Mapk signaling: ≤ 24 h
[3]; single dose, 4 hours after treatment
  Ras/Mapk signaling (pERK IHC) in KPC tumors: near-complete inhibition
[3]; the same 6 EP tumors
  pS6 (S235/S236 and S240/S244) in EP tumors: continued inhibition
[4]
  phosphorylation of ERK1/2 (pERK): reduced phosphorylation
[5]
  impact on animal weight: little impact
[5]; KPC, 129S4/SvJae
  tumor response: regressions in most tumors
